Experimental data from ChEMBL document CHEMBL3804786, “Novel 1,3-thiazolidin-4-one derivatives as promising anti-Candida agents endowed with anti-oxidant and chelating properties” (Eur J Med Chem, 2016).
In brackets after ≈: the same amount, converted by molar mass.

Tests used:
Staphylococcus aureus = test: Antibacterial activity against Staphylococcus aureus clinical isolate after 18 to 22 hrs by broth microdilution method; assay type: functional
Staphylococcus warneri = test: Antibacterial activity against Staphylococcus warneri clinical isolate after 18 to 22 hrs by broth microdilution method; assay type: functional
Enterococcus faecalis = test: Antibacterial activity against Streptococcus faecalis clinical isolate after 18 to 22 hrs by broth microdilution method; assay type: functional
Escherichia coli = test: Antibacterial activity against Escherichia coli after clinical isolate 18 to 22 hrs by broth microdilution method; assay type: functional
Proteus mirabilis = test: Antibacterial activity against Proteus mirabilis clinical isolate after 18 to 22 hrs by broth microdilution method; assay type: functional
Enterobacter sp. = test: Antibacterial activity against Enterobacter spp. clinical isolate after 18 to 22 hrs by broth microdilution method; assay type: functional
Klebsiella oxytoca = test: Antibacterial activity against Klebsiella oxytoca clinical isolate after 18 to 22 hrs by broth microdilution method; assay type: functional
Candida albicans = test: Antifungal activity against Candida albicans clinical isolate after 24 hrs by broth microdilution method; assay type: functional
Nakaseomyces glabratus = test: Antifungal activity against Candida glabrata clinical isolate after 24 hrs by broth microdilution method; assay type: functional
Candida tropicalis = test: Antifungal activity against Candida tropicalis clinical isolate after 24 hrs by broth microdilution method; assay type: functional
Pichia kudriavzevii = test: Antifungal activity against Candida krusei clinical isolate after 24 hrs by broth microdilution method; assay type: functional
Candida parapsilosis = test: Antifungal activity against Candida parapsilosis clinical isolate after 24 hrs by broth microdilution method; assay type: functional; details: Lodderomyces parapsilosis
[Candida] sake = Antifungal activity against Candida sake clinical isolate after 24 hrs by broth microdilution method; assay type: functional; details: Fermentozyma sake
[1] = Cytotoxicity against human Hep2 cells assessed as cell survival at 0.05 ug/ml after 24 hrs by trypan blue exclusion assay; assay type: cell-based, HEp-2; details: read-out: Survival
[2] = Cytotoxicity against human Hep2 cells assessed as cell survival at 0.5 ug/ml after 24 hrs by trypan blue exclusion assay; assay type: cell-based, HEp-2; details: read-out: Survival
[3] = Cytotoxicity against human Hep2 cells assessed as cell survival at 5 ug/ml after 24 hrs by trypan blue exclusion assay; assay type: cell-based, HEp-2; details: read-out: Survival
[4] = Cytotoxicity against human Hep2 cells assessed as cell survival at 10 ug/ml after 24 hrs by trypan blue exclusion assay; assay type: cell-based, HEp-2; details: read-out: Survival
[5] = Cytotoxicity against human Hep2 cells assessed as cell survival at 50 ug/ml after 24 hrs by trypan blue exclusion assay; assay type: cell-based, HEp-2; details: read-out: Survival
[6] = Cytotoxicity against human Hep2 cells assessed as reduction in cell viability after 24 hrs by trypan blue exclusion assay; assay type: cell-based, HEp-2
[7] = Antioxidant activity of the compound after 90 mins by phosphomolybdenum assay; assay type: physicochemical
[8] = Antioxidant activity of the compound after 30 mins by FRAP assay; assay type: physicochemical
[9] = Antioxidant activity of the compound after 30 mins by CUPRAC method; assay type: physicochemical
[10] = Antioxidant activity assessed as DPPH radical scavenging activity after 30 mins under dark conditions; assay type: physicochemical
[11] = Antioxidant activity assessed as ABTS radical scavenging activity after 30 mins under dark conditions; assay type: physicochemical
[12] = Metal chelating activity of the compound assessed as ferrous ion complex formation after 10 mins; assay type: physicochemical
[13] = test system: Streptococcus sp. (viridans group); test: Antibacterial activity against Streptococcus alpha-hemolyticus clinical isolate after 18 to 22 hrs by broth microdilution method

Structure (SMILES)	MIC (Staphylococcus aureus) [µg/mL]	MIC (Staphylococcus warneri) [µg/mL]	MIC (Enterococcus faecalis) [µg/mL]	MIC (Escherichia coli) [µg/mL]	MIC (Proteus mirabilis) [µg/mL]	MIC (Enterobacter sp.) [µg/mL]	MIC (Klebsiella oxytoca) [µg/mL]	MIC (Candida albicans) [µg/mL]	MIC (Nakaseomyces glabratus) [µg/mL]	MIC (Candida tropicalis) [µg/mL]	MIC (Pichia kudriavzevii) [µg/mL]	MIC (Candida parapsilosis) [µg/mL]	MIC ([Candida] sake) [µg/mL]	viability at 24 h, 0.05 ug/ml [1] [%]	viability at 24 h, 0.5 ug/ml [2] [%]	viability at 24 h, 5 ug/ml [3] [%]	viability at 24 h, 10 ug/ml [4] [%]	viability at 24 h, 50 ug/ml [5] [%]	CC50 at 24 h [6] [µg/mL]	EC50 [7] [mM]	also measured
O=C1CS/C(=N\N=C2CCCC2)N1Cc1ccccc1F	> 256	> 256	> 256	> 256	> 256	> 256	> 256	2 (≈ 6.55 µM)	2 (≈ 6.55 µM)	2 (≈ 6.55 µM)	8 (≈ 26.2 µM)	2 (≈ 6.55 µM)	2 (≈ 6.55 µM)	82	69	52	37	0	11 (≈ 36 µM)	0.7	EC50 [8]: 5.63 mM; EC50 [9]: 2.37 mM; IC50 [10]: > 5 mM; IC50 [11]: 12.4 mM; IC50 [12]: > 5 mM; MIC [13]: > 256 µg/mL
C/C(=N/N=C1\SCC(=O)N1Cc1ccccc1[N+](=O)[O-])c1cccs1	> 256	> 256	> 256	> 256	> 256	> 256	> 256	2 (≈ 5.34 µM)	2 (≈ 5.34 µM)	4 (≈ 10.7 µM)	2 (≈ 5.34 µM)	8 (≈ 21.4 µM)	2 (≈ 5.34 µM)	88	84	74	61	0	20 (≈ 53.4 µM)	1.12	EC50 [8]: 2.4 mM; EC50 [9]: 2.25 mM; IC50 [10]: > 5 mM; IC50 [11]: 18.1 mM; IC50 [12]: > 5 mM; MIC [13]: > 256 µg/mL
CC(C)=N/N=C1\SCC(=O)N1Cc1cccc([N+](=O)[O-])c1	> 256	> 256	> 256	> 256	> 256	> 256	> 256	2 (≈ 6.53 µM)	2 (≈ 6.53 µM)	2 (≈ 6.53 µM)	2 (≈ 6.53 µM)	16 (≈ 52.2 µM)	2 (≈ 6.53 µM)	79	68	51	0	0	5 (≈ 16.3 µM)	1.24	EC50 [8]: 5.29 mM; EC50 [9]: 2.35 mM; IC50 [10]: > 5 mM; IC50 [11]: 19.4 mM; IC50 [12]: > 5 mM; MIC [13]: > 256 µg/mL
O=C1CS/C(=N\N=C2CCCC2)N1Cc1ccc(Cl)cc1	> 256	> 256	> 256	> 256	> 256	> 256	> 256	2 (≈ 6.21 µM)	2 (≈ 6.21 µM)	2 (≈ 6.21 µM)	8 (≈ 24.9 µM)	2 (≈ 6.21 µM)	4 (≈ 12.4 µM)	89	83	59	47	0	16 (≈ 49.7 µM)	0.56	EC50 [8]: 4.8 mM; EC50 [9]: 2.1 mM; IC50 [10]: > 5 mM; IC50 [11]: 18.3 mM; IC50 [12]: > 5 mM; MIC [13]: > 256 µg/mL
